As usually defined, the IC50 is the concentration needed to halve the response being measured. The term inhibition denotes the percentage by which the read-out fell short of the control.

Experimental findings from ChEMBL document CHEMBL3585341, “-Heteroarylalkylcarbamates as inhibitors of fatty acid amide hydrolase (FAAH)” (Medchemcomm, 2014) are described below.

Series [1] concerns the target T1, Fatty-acid amide hydrolase 1 (Rattus norvegicus, UniProt P97612).
T1 sequence (P97612 whole entry): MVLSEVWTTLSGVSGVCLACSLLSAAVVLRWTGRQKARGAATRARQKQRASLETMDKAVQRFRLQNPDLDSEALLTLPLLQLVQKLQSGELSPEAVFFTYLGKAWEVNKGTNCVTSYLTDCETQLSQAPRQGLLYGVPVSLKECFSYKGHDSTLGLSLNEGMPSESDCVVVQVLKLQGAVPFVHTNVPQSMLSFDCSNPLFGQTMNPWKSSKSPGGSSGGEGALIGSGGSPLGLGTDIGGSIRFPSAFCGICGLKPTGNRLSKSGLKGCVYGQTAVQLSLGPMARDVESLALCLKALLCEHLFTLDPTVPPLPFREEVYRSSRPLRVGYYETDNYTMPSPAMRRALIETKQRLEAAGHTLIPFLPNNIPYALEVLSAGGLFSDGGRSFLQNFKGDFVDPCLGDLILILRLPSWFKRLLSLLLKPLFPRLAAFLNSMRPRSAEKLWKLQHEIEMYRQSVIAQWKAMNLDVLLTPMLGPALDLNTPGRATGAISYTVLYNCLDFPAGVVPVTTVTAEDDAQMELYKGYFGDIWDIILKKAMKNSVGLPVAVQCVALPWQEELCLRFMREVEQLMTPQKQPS
Put plainly: Inhibition of Sprague-Dawley rat brain microsomal FAAH using N-(2-hydroxyethyl)-4-pyren-1-ylbutanamide as substrate assessed as 4-pyren-1-ylbutanoic acid release preincubated for 10 mins with substrate followed by protein addition measured after 60 mins by reverse phase HPLC with fluorescence detection method.

The species named for series [2] is Sus scrofa. As to the kind of experiment: Inhibition of porcine platelet cPLA2alpha using co-vesicles consisting 1-stearoyl-2-arachidonoyl-sn-glycero-3-phosphocholine and 1,2-dioleoyl-sn-glycerol as substrate assessed as arachidonic acid release at 10 uM after 60 mins by reverse phase HPLC with UV-detection method.
Series [3] can be described thus: Metabolic stability in rat liver S9 fractions assessed as remaining compound after 30 mins by reverse phase HPLC with UV-detection method in presence of NADPH. Format: ADME, subcellular, Liver S9 fraction. As to conditions: read-out: Stability.
Series [4] is described as follows: Metabolic stability in porcine plasma assessed as remaining compound at […] after 30 mins by reverse phase HPLC with UV-detection method. It counts as ADME, cell-free, Sus scrofa. As to conditions: pig, read-out: Stability.
For series [5], the target named is T2, Monoglyceride lipase (Homo sapiens) (UniProt Q99685).
T2 sequence (whole entry): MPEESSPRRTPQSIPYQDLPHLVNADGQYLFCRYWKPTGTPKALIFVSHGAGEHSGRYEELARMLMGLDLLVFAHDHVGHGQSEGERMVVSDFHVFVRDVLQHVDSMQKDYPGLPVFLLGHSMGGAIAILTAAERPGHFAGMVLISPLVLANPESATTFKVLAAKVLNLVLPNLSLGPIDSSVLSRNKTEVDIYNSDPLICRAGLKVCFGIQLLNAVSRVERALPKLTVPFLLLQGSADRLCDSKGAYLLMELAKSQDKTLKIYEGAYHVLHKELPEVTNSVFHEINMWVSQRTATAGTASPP
As to the kind of experiment: Inhibition of human recombinant MAGL using […] 4-pyren-1-yl butanoate as substrate at 10 uM preincubated for 15 mins with substrate followed by protein addition measured after 45 mins by reverse phase HPLC with fluorescence detection method.

Series [6] concerns the target T3, Fatty-acid amide hydrolase 1 (Rattus norvegicus) (UniProt P97612).
T3 sequence (whole entry): T1 sequence (P97612 whole entry)
Put plainly: Inhibition of Sprague-Dawley rat brain microsomal FAAH using N-(2-hydroxyethyl)-4-pyren-1-ylbutanamide as substrate assessed as 4-pyren-1-ylbutanoic acid release at 10 uM preincubated for 10 mins with substrate followed by protein addition measured after 60 mins by reverse phase HPLC with fluorescence detection method.

Each structure is given as a SMILES string. Calls of active or inactive are those of the source. The rule behind the calls is not given here.

With `O=C(NCCCCCn1ccc2ccccc21)Oc1cccnc1`, in series [1], the IC50 was determined as 3.6 nM. In addition, the inhibition entry in series [2] is “inactive”. Moreover, the remaining at 0.5 h in series [3] worked out at 43%; in series [4], 0%.
Turning to `Cc1ccc(-c2ccccc2)n1CCCCCCNC(=O)Oc1ccccc1`, the IC50 in series [1] amounted to 310 nM.
Consider `O=C(NCCCCn1ccc2ccccc21)Oc1ccccc1`, for which, in series [1], the IC50 was found to be 960 nM. Also, the inhibition entry in series [5] and in series [2] was “inactive” in each case.
As to `O=C(NCCCCCCn1cnc2ccccc21)Oc1ccccc1`, the IC50 in series [1] was found to be 290 nM.
On to `Cc1cc(-c2ccccc2)c(-c2ccccc2)n1CCNC(=O)Oc1ccccc1`, for which, in series [6], the inhibition entry was “inactive”.
As for `O=C(NCCCCCCn1cc(-c2ccccc2)c2ccccc21)Oc1ccccc1`, the IC50 in series [1] turned out to be 4900 nM.
Still for that read-out and setting: the figure for `Cc1cc(-c2ccccc2)c(-c2ccccc2)n1CCCCNC(=O)Oc1ccccc1` is 6200 nM; for `O=C(NCCCCCCn1c(-c2ccccc2)cc2ccccc21)Oc1ccccc1` it is 520 nM.
`CC(=O)c1c(-c2ccccc2)c(-c2ccccc2)n(CCCCCCNC(=O)Oc2ccccc2)c1C`: the IC50 in series [1] was over 10000 nM. For the same molecule, in series [6], the inhibition worked out at 33%.
Consider `Cc1c(C#N)c(-c2ccccc2)c(-c2ccccc2)n1CCCCCCNC(=O)Oc1ccccc1`, for which the IC50 in series [1] worked out at 8700 nM.
On the same count and under the same terms, as for `Cc1cc(-c2ccccc2)c(-c2ccccc2)n1CCCCCCNC(=O)Oc1ccccc1`, the figure is 2600 nM.
With `Cc1c(-c2ccccc2)cc(-c2ccccc2)n1CCCCCCNC(=O)Oc1ccccc1`, the IC50 in series [1] was found to be 460 nM.
Still for that read-out and setting: as for `O=C(NCCCCCCn1ncc2ccccc21)Oc1ccccc1`, the figure is 920 nM.
Take `O=C(NCCCCCCn1ccc2ccccc21)Oc1ccccc1`: the IC50 in series [1] came to 250 nM. The inhibition entry in series [5] and in series [2] was “inactive” throughout.
For `COC(=O)c1c(-c2ccccc2)c(-c2ccccc2)n(CCCCCCNC(=O)Oc2ccccc2)c1C`, the IC50 in series [1] was over 10000 nM. The inhibition in series [6] came out at 21%.
In the case of `O=C(NCCCCCCCn1ccc2ccccc21)Oc1ccccc1`, the IC50 in series [1] is 90 nM. Further, the inhibition result in series [5] and in series [2] was “inactive” in each case.
Regarding `O=C(NCCCCCCn1ccc2ccccc21)Oc1cccnc1`, in series [1], the IC50 was 5.2 nM. Also, the inhibition entry in series [2] was “inactive”. Further, the remaining at 0.5 h in series [3] came out at 47%; in series [4], 0%.
`NC(=O)c1cccc(-c2cccc(OC(=O)NC3CCCCC3)c2)c1` [URB-597]: in series [2], the inhibition entry was “inactive”. Further, the remaining at 0.5 h in series [3] was 13%; in series [4], 76%.
On to `O=C(NCCCCCCn1nnc2ccccc21)Oc1ccccc1`, for which the IC50 in series [1] is 810 nM.
For the molecule `O=C(NCCCCCCCCn1ccc2ccccc21)Oc1ccccc1`, the IC50 in series [1] worked out at 240 nM. Besides, the inhibition result in series [5] and in series [2] was “inactive” each time.
With `O=C(NCCCCCn1ccc2ccccc21)Oc1ccccc1`, the IC50 in series [1] is 94 nM. The inhibition result in series [5] and in series [2] was “inactive” in each case.
Turning to `Cc1nc(-c2ccccc2)c(-c2ccccc2)n1CCCCCCNC(=O)Oc1ccccc1`, the IC50 in series [1] stood at 350 nM.
The same measure, in the same setting: as for `O=C(NCCCCCCn1c(-c2ccccc2)c(-c2ccccc2)c2ccccc21)Oc1ccccc1`, the figure is 4700 nM.
